Results on seven compounds are retold here after patent US7777047B2, “Indole compound” (Takeda Pharmaceutical Company Limited, priority 2006, dated 2010).

Data set [1] concerns the target T1, GST-hLGK1 (human liver GK) (Homo sapiens, UniProt P35557).
T1 construct: made in house; host or cells: Escherichia coli BL21 (Stratagene), plasmid pGEX6P-2/hLGK1
T1 sequence (P35557 1-464 isoform P35557-3): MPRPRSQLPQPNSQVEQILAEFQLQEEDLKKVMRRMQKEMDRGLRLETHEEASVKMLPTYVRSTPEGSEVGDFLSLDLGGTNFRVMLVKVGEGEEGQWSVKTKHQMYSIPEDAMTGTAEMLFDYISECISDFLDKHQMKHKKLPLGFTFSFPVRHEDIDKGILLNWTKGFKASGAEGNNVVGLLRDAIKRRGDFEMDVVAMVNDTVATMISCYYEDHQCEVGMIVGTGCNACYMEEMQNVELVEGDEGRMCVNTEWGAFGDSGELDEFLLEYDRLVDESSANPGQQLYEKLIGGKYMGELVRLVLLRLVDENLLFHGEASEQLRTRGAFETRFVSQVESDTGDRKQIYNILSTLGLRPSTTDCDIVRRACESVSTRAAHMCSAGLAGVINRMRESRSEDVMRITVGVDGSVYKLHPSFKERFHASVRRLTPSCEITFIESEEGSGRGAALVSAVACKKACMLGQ
The data set can be described thus: Determination of GK activity value (GST-hLGK1, Mant-ATP, capillary electrophoresis). As to conditions: glucokinase activation; GST-hLGK1, D-glucose, 37° C. for 60 min; concentration at midpoint between maximum activity value and control group activity value. It is filed as biochemical. The protocol:
Plasmid DNA to be used for the expression of a protein (GST-hLGK1) containing GST (Glutathione S-transferase) added to the amino terminal of human liver GK in Escherichia coli was prepared as follows.
BL21 strain (Stratagene) transformed with pGEX6P-2/hLGK1 obtained in Reference Example 1A was cultured with shaking at 37° C. for 14 hr in a 200 ml Erlenmeyer flask containing 50 ml of 100 μg/ml ampicillin-containing LB medium. The culture medium (25 ml) was diluted with 225 ml of 100 μg/ml ampicillin-containing LB medium, and further cultured with shaking at 37° C. for 1 hr in a 1 L Erlenmeyer flask. After culture, the Erlenmeyer flask was cooled on ice, 125 μL of 100 mM isopropyl-thio-β-D-galactopyranoside (IPTG) was added (final concentration 50 μM), and cultured at 17° C. for 20 hr. The culture medium was centrifuged, and the obtained fungus was disrupted by ultrasonication. The object protein (GST-hLGK1) was purified from the supernatant using Glutathione Sepharose 4B (Amersham Biosciences K.K.).
A solution (5 μL) of test compound in 50% dimethyl sulfoxide was added to each well of 384 well black plate (Nalge Nunc International K.K.). Then, a solution ([…]) obtained by diluting GST-hLGK1 obtained in Reference Example 2A with measurement buffer (containing 50 mM HEPES (pH 7.4), 200 mM KCl, 5 mM MgCl2, 2.5 mM DTT and 50 μM 2′-(or-3′)-O—(N-methylanthraniloyl)adenosine 5′-triphosphate (Mant-ATP) (Jena Bioscience GmbH)) to 6 μg/mL was added to each well.
Each well was stood at 37° C. for 10 min, and 25 mM D-glucose solution (10 μL) was added to start the reaction.
Each well after the reaction was stood at 37° C. for 60 min, and the reaction was quenched by adding 25 μL of a quenching solution (containing 200 mM HEPES (pH 7.4), 20 mM MgCl2, 200 mM EDTA, 0.03% Triton-X 100, 0.3% Coating 3 reagent (Caliper Life Sciences, Inc.)).
2′-(or-3′)-O—(N-methylanthraniloyl)adenosine 5′-triphosphate (Mant-ATP, substrate) and Mant-ADP (reaction resultant product) were separated from each well after the reaction by a microchip type capillary electrophoresis apparatus 250 HTS (Caliper Life Sciences, Inc.). The reaction rate [(reaction resultant product peak height)/(reaction resultant product peak height+substrate peak height)×100(%)] was calculated from the ratio of the substrate peak height and reaction resultant product peak height obtained by fluorescence detection (excitation wavelength 355 nm, measurement wavelength 460 nm) and used as the index of GK activity.
As a control group, the reaction rate was calculated in the same manner as above except that “solution in 50% dimethyl sulfoxide (without test compound)” was used instead of “solution of test compound in 50% dimethyl sulfoxide”.
A concentration dependency curve of the test compound was drawn with the percentage obtained by dividing the reaction rate of the well added with the test compound (test compound addition group) by the reaction rate of the control group was taken as the GK activity value of the test compound, and the concentration of the test compound at the midpoint between the maximum activity value of the test compound addition group and the control group activity value is shown as EC50 value.

A word on the EC50: it is the concentration needed to bring the measured effect to its halfway point. Low readings indicate a more potent agent, high ones a less potent agent. The term melting point denotes the temperature, or range, at which the solid turns liquid. Consider `CN(c1cccc2cc(C3=NCC(CC(N)=O)S3)[nH]c12)S(=O)(=O)c1ccccn1` (single isomer, unassigned) [Example 337, 2-(2-{7-[methyl(pyridin-2-ylsulfonyl)amino]-1H-indol-2-yl}-4,5-dihydro-1,3-thiazol-5-yl)acetamide], for which the melting point lay in the range of 149 to 150 °C. In data set [1], this compound yielded a 50% effective concentration (EC50) of 82 nM.

With `CN(c1cccc2cc(-c3ncc(CN4CCN5C(=O)OCC5C4)s3)[nH]c12)S(=O)(=O)c1cccs1` (stereo not drawn) [Example 229, N-methyl-N-(2-{5-[(3-oxotetrahydro[1,3]oxazolo[3,4-a]pyrazin-7(1H)-yl)methyl]-1,3-thiazol-2-yl}-1H-indol-7-yl)thiophene-2-sulfonamide], the midpoint of the response in data set [1], the EC50, lay at 120 nM.

Consider `CCN(c1cccc2cc(-c3ncc(CN4CCn5cnnc5C4)s3)[nH]c12)S(=O)(=O)c1cccs1` [Example 236, N-{2-[5-(5,6-dihydro[1,2,4]triazolo[4,3-a]pyrazin-7(8H)-ylmethyl)-1,3-thiazol-2-yl]-1H-indol-7-yl}-N-ethylthiophene-2-sulfonamide], for which the EC50 in data set [1] was determined as 250 nM.

With `CN(c1cccc2cc(C3=NCC4(CCOCC4)S3)[nH]c12)S(=O)(=O)c1cccs1` [Example 243, N-methyl-N-[2-(8-oxa-1-thia-3-azaspiro[4.5]dec-2-en-2-yl)-1H-indol-7-yl]thiophene-2-sulfonamide], the EC50 in data set [1] was found to be 24 nM.

As to `COCCOc1cc(N(C)S(=O)(=O)c2ccccn2)c2[nH]c(C3=N[C@H](CO)CS3)cc2c1` [Example 253, N-[2-[(4R)-4-(hydroxymethyl)-4,5-dihydro-1,3-thiazol-2-yl]-5-(2-methoxyethoxy)-1H-indol-7-yl]-N-methylpyridine-2-sulfonamide], in data set [1], the EC50 came out at 210 nM.

Turning to `COCCOc1cc(N(C)S(=O)(=O)c2ccccn2)c2[nH]c(C3=N[C@@H](CO)CS3)cc2c1` [Example 254, N-[2-[(4S)-4-(hydroxymethyl)-4,5-dihydro-1,3-thiazol-2-yl]-5-(2-methoxyethoxy)-1H-indol-7-yl]-N-methylpyridine-2-sulfonamide], the EC50 in data set [1] came to 200 nM.

For `CN(c1cccc2cc(C3=NCC4(CCN(CC(N)=O)CC4)S3)[nH]c12)S(=O)(=O)c1cccs1` [Example 414, 2-(2-{7-[methyl(2-thienylsulfonyl)amino]-1H-indol-2-yl}-1-thia-3,8-diazaspiro[4.5]dec-2-en-8-yl)acetamide], the melting point stood at 226 °C. In data set [1], this compound yielded an EC50 of 37 nM.
